Article PMC6193737, “Ligand binding properties of two Brugia malayi fatty acid and retinol (FAR) binding proteins and their vaccine efficacies against challenge infection in gerbils” (PLoS Neglected Tropical Diseases, 2018)

Experiments:
Assay type in all cases: binding
rBm-FAR-1 [1] = biological target: T1, rBm-FAR-1 (Brugia malayi, UniProt A0A0K0J905); assay: fluorescence emission enhancement and blue shift; conditions: PBS pH 7.2; DAUDA ~1 uM; excitation 345 nm; fluorophore-tagged fatty acid
T1 construct: gene bma-far-1; signal peptide removed; C-terminal 6His tag; secreted from Pichia (PichiaPink strain 4, pPinkalpha-HC, codon optimised); IMAC; ~19 kDa
T1 sequence (A0A0K0J905 entry or part of it): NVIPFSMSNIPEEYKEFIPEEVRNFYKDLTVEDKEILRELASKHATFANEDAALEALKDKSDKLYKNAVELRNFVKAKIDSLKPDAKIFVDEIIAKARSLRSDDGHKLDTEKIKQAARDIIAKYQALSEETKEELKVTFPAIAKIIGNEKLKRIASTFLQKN

rOv-FAR-1 [2] = biological target: T2, rOv-FAR-1 (Onchocerca volvulus, UniProt Q25619); assay: fluorescence emission enhancement and blue shift; conditions: PBS pH 7.2; DAUDA ~1 uM; excitation 345 nm; fluorophore-tagged fatty acid
T2 construct: recombinant from E. coli, produced by procedures similar to rBm-FAR-2 (His tag, IMAC, signal peptide removed)
T2 sequence (Q25619 17-178): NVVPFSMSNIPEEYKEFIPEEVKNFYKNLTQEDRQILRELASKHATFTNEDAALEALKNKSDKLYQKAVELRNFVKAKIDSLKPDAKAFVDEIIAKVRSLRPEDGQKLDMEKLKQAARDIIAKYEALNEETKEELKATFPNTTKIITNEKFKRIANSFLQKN

rBm-FAR-1 [3] = biological target: T1, rBm-FAR-1; assay: fluorescence emission enhancement; conditions: PBS pH 7.2
rOv-FAR-1 [4] = biological target: T2, rOv-FAR-1; assay: fluorescence emission enhancement; conditions: PBS pH 7.2
rOv-FAR-2 = biological target: T3, rOv-FAR-2 (Onchocerca volvulus, UniProt C7DRP3); assay: fluorescence emission enhancement; conditions: PBS pH 7.2
T3 construct: recombinant from E. coli, produced by procedures similar to rBm-FAR-2 (His tag, IMAC, signal peptide removed)
T3 sequence (C7DRP3 entry or part of it): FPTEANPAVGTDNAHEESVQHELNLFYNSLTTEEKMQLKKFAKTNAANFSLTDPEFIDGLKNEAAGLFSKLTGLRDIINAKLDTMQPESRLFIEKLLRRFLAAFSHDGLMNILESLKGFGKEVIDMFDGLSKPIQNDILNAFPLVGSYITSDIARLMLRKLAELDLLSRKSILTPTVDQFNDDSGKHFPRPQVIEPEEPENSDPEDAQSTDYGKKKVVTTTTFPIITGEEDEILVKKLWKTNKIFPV

[5] = retinol ~4 uM, excitation 350 nm

Q: With `CN(C)c1cccc2c(S(=O)(=O)NCCCCCCCCCCC(=O)O)cccc12` [DAUDA, 11-((5-dimethylaminonaphthalene-1-sulfonyl)amino)undecanoic] as the compound, how does the “fluorescence emission enhancement and blue shift” value (rBm-FAR-1 [1]) read?
A: The value was “rBm-FAR-1 produced a large increase in DAUDA emission and a substantial blue-shift”.

Q: And the “fluorescence emission enhancement and blue shift” value (rOv-FAR-1 [2])?
A: The value was “FAR-1s bind DAUDA, yielding similarly substantial increases and blue shift”.

Q: Which results are given for `CC1=C(/C=C/C(C)=C/C=C/C(C)=C/CO)C(C)(C)CCC1` [all-trans retinol]?
A: fluorescence emission enhancement (rBm-FAR-1 [3]; [5]): Addition of retinol to either rBm-FAR-1 or rBm-FAR-2 resulted in substantial increases in fluorescence emission; fluorescence emission enhancement (rOv-FAR-1 [4]; [5]): the proteins from both parasites bind retinol; fluorescence emission enhancement (rOv-FAR-2; [5]): the proteins from both parasites bind retinol

Q: Which fluorescence emission enhancement (rBm-FAR-1 [3]; cPnA ~4 uM, excitation 319 nm) does the source give for `CC\C=C/C=C/C=C/C=C\CCCCCCCC(=O)O` [cis-parinaric acid] here?
A: Its fluorescence emission enhancement is “Both rBm-FAR-1 and rBm-FAR-2 bound cPnA”.

Q: And the fluorescence emission enhancement (rOv-FAR-1 [4]; cPnA ~4 uM, excitation 319 nm)?
A: Its fluorescence emission enhancement is “both FAR-1s and FAR-2s bind a natural, intrinsically fluorescent, fatty acid acid (cPnA)”.

Q: What about the fluorescence emission enhancement (rOv-FAR-2; cPnA ~4 uM, excitation 319 nm) of the same compound?
A: Its fluorescence emission enhancement is “both FAR-1s and FAR-2s bind a natural, intrinsically fluorescent, fatty acid acid (cPnA)”.
